Measured values as given in patent US6903132B2, “Non-peptide GnRH agents, pharmaceutical compositions and methods for their use” (Agouron Pharmaceuticals, Inc., priority 2002, dated 2005).
pKi: −log10 of the molar value.

The compounds below were run against T1, human GnRH receptors (Homo sapiens, UniProt P30968) (assay: Radioligand binding assay: inhibition of binding of 125I-GnRH-A to GnRH receptors (membranes)). Conditions: Human GnRH receptor; competition with 125I-GnRH-A; Ki calculated from IC50 (Cheng et al.).
T1 construct: expressed in transfected cells; host or cells: HEK 293
T1 sequence (P30968 1-328): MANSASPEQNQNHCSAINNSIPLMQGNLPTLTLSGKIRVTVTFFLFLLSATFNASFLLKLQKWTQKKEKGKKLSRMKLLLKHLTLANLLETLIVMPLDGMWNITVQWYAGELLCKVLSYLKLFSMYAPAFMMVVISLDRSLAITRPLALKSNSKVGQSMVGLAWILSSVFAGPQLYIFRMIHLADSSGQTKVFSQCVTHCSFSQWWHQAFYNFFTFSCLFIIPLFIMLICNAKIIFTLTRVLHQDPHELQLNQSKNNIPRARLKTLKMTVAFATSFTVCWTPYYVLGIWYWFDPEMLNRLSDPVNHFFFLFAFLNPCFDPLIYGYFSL
Procedure: HEK 293 cells stably transfected with mouse or human GnRH receptors as described above are grown in Dulbecco's high-glucose, modified Eagle's medium (DMEM) supplemented with 0.2% G418, 10% fetal bovine serum (FBS) and 100U/mL penicillin/streptomycin. GH3 cells stably transfected with the rat GnRH receptor (GGH3) were provided by Dr. William Chin (Harvard Medical School, Boston, Mass.). These cells are extensively characterized previously (Kaiser et al., 1997). The cells are grown in low glucose DMEM containing: 100U/mL penicillin/streptomycin, 0.6% G418 and 10% heat-inactivated FBS.
HEK 293 cells containing mouse or human receptors, or rat pituitaries (Pel Freez Biologicals, Rogers, Ark.) are homogenized in buffer A containing: 50 mM Tris (pH 7.4), 0.32 M sucrose, 2 mM EGTA, 1 mM PMSF, 5 μg/ml aprotinen, 5 μg/ml Pepstatin A, and 1 μg/ml leupeptin. Homogenized cells are centrifuged at 4° C. at 20,000×g for 25 minutes, re-suspended in buffer A and re-centrifuged at 4° C. at 20,000×g for an additional 25 minutes. Total membrane protein was determined with a BCA kit (Pierce, Rockford, Ill.). Membranes are stored at −70° C. at a final membrane protein concentration of approximately 5 mg/ml.
The radioiodinated agonist analog of GnRH, [des-Gly^10, D-Ala^6]GnRH ethylamide (^125I-GnRH-A), is used as the radioligand. One μg of GnRH-A diluted in 0.5 M phosphate buffer (pH 7.4) is added to an lodogen®-coated borosilicate glass tube (Pierce, Rockford, Ill.) containing 35 μl of 0.05 M phosphate buffer (pH 7.4-7.6) and 1 mCi of Na[^125I]. The reaction mixture is vortexed and incubated for 1 minute at room temperature. After one minute, the mixture is vortexed and allowed to incubate for an additional minute. 2 ml of 0.5 M acetic acid/1% BSA is added to the reaction tube and the mixture is added to a C18 Sep-Pak cartridge. The cartridge is washed with subsequent washes of 5 ml H2O and 5 ml 0.5 M acetic acid and then eluted with 5×1 ml of 60%CH3CN/40% 0.5 M acetic acid. The eluate is diluted with 3× volume of HPLC buffer A (0.1% TFA in H2O) and loaded onto a C18 column. The iodinated product is eluted over 20-25 min with a gradient of 25-100% CH3CN containing 0.1% TFA. The radioactive fractions (750 μl/fraction) are collected into clean polypropylene tubes containing 100 μl of 10% BSA. Fractions are assessed for biological activity by radiolig and binding. Specific activity of the radioligand was approximately 2200 Ci/mmol.
Membranes are diluted to 0.01-0.5 mg/ml (depending upon the species of receptor) with assay buffer containing 50 mM HEPES (pH 7.4), 1 mM EDTA, 2.5 mM MgCl2, and 0.1% BSA. Membranes (diluted to utilize similar receptor numbers between assays) are incubated with approximately 0.04-0.06 nM ^125I-GnRH-A in the presence or absence of competing agents (0.1-10,000 nM) in a total volume of 200 μl in 96-well polypropylene plates for 1 hour at room temperature. Assays are stopped by rapid filtration onto 96-well GF/C filters soaked in 0.1% polyethylenimine (PEI) utilizing a Packard 96-well cell harvester. Filters are washed three times with ice-cold PBS (50 mM NaPO4, 0.9% NaCl, 2 mM MgCl2, and 0.02% NaN3, pH 7.4). 35 μl of scintillation cocktail is added to each filter well and filters are counted on a Packard Topcount. Control dose-response curves are generated to GnRH (0.1 nM-100 nM) in each competition binding experiment. Ki values were calculated from IC50 values according to Cheng et al., Biochemical Pharmacol. 22: 3099-3108, 1973. [formula]

SMILES	pKi
COc1cc(OC)c(CNNC(=O)c2ccc(Cc3cc4c(cc3C)C(C)(C)CCC4(C)C)o2)c(OC)c1 [Example A1, 5-[(3,5,5,8,8-Pentamethyl-5,6,7,8-tetrahydro-2-naphthalenyl)methyl]-N′-(2,4,6-trimethoxybenzyl)-2-furohydrazide]	5.74
COc1cccc(OC)c1CNNC(=O)c1ccc(Cc2cc3c(cc2C)C(C)(C)CCC3(C)C)o1 [Example A2]	6.15
Cc1cc(C)cc(NNC(=O)c2ccc(Cc3cc4c(cc3C)C(C)(C)CCC4(C)C)o2)c1 [Example B2, N′-(3,5-dimethylphenyl)-5-[(3,5,5,8,8-pentamethyl-5,6,7,8-tetrahydro-2-naphthalenyl)methyl]-2furohydrazide]	6.51
Cc1cc(NNC(=O)c2ccc(Cc3cc4c(cc3C(C)C)C(C)(C)CCC4(C)C)o2)nc2c1c(C)nn2C [Example C3, 5-[(3-lsopropyl-5,5,8,8-tetramethyl-5,6,7,8-tetrahydro-2-naphthalenyl)methyl]-N′-(1,3,4-trimethyl-1H-pyrazolo[3,4-b]pyridin-6-yl)-2-furohydrazide]	6.52
COc1cc2c(cc1Cc1ccc(C(=O)NNc3nccc(NCC4CCCO4)n3)o1)C(C)(C)CCC2(C)C (stereo not shown) [Example C7]	5.76
Cc1cc2c(cc1Cc1ccc(C(=O)NNc3c(Cl)cncc3Cl)o1)C(C)(C)CCC2(C)C [Example C8, N′-(3,5-dichloro-4-pyridinyl)-5-[(3,5,5,8,8-pentamethyl-5,6,7,8-tetrahydro-2-naphthalenyl)methyl]-2-furohydrazide]	6.39
Cc1cc2c(cc1Cc1ccc(C(=O)NNc3ccccn3)o1)C(C)(C)CCC2(C)C [Example C10, 5-[(3,5,5,8,8-Pentamethyl-5,6,7,8-tetrahydro-2-napthalenyl)methyl]-N′-(2-pyridinyl)-2-furohydrazide]	6.46
Cc1cc2c(cc1Cc1ccc(C(=O)NNc3ccc(C(F)(F)F)cn3)o1)C(C)(C)OC2(C)C [Example E5, 5-(1,1,3,3,6-Pentamethyl-1,3-dihydro-isobenzofuran-5-ylmethyl)-furan-2-carboxylic acid N′-(5-trifluoromethyl-pyridin-2-yl)-hydrazide]	6.41

Results, then the compound that gave them:

pKi	SMILES
5.25	CCN(CC)C(=O)c1ccc(C)c(Oc2ccc(C(=O)NNc3cc(C)c4c(C)nn(C)c4n3)o2)c1 [Example H1, N,N-diethyl-4-methyl-3-[(5-{[2-(1,3,4-trimethyl-1H-pyrazolo[3,4-b]pyridin-6-yl)hydrazino]carbonyl}-2-furyl)oxy]benzamide]
6.20	CC(=O)N1CCC(C)(C)c2cc(Oc3ccc(C(=O)NNc4cc(C)c5c(C)nn(C)c5n4)o3)c(Cl)cc21 [Example I1, 5-(1-Acetyl-7-chloro-4,4-dimethyl-1,2,3,4-tetrahydro-quinolin-6-yloxy)-furan-2-carboxylic acid N′-(1,3,4-trimethyl-1H-pyrazolo[3,4-b]pyridin-6-yl)-hydrazide]
6.01	Cc1ccccc1Oc1ccc(C(=O)NNc2cc(C)c3c(C)nn(C)c3n2)o1 [Example I4, 5-(2-Methylphenoxy)-N′-(1,3,4-trimethyl-1H-pyrazolo[3 ,4-b]pyridin-6-yl)-2-furohydrazide]
7.40	Cc1cc2c(cc1Oc1ccc(C(=O)NNc3nc(N)nc(C4CC4)n3)o1)C(C)(C)CC2 [Example I13, N′-(4-Amino-6-cyclopropyl-1,3,5-triazin-2-yl)-5-[(3,3,6-trimethyl-2,3-dihydro-1H-inden-5-yl)oxy]-2-furohydrazide]
6.65	Cc1cc2c(cc1Oc1ccc(C(=O)NNc3ccc(S(N)(=O)=O)cc3)o1)C(C)(C)CC2 [Example I14, 4-(2-{5-[(3,3,6-Trimethyl-2,3-dihydro-1H-inden-5-yl)oxy]-2-furoyl}hydrazino)benzenesulfonamide]
6.20	CC(=O)N(C)c1ccc(C)c(Oc2ccc(C(=O)NNc3cc(C)c4c(C)nn(C)c4n3)o2)c1 [Example I30, N-Methyl-N-(4-methyl-3-{5-[N′-(1,3,4-trimethyl-1H-pyrazolo[3,4-b]pyridin-6-yl)-hydrazinocarbonyl]-furan-2-yloxy}-phenyl)-acetamide]
6.40	Cc1cc(C)c(Cc2ccc(C(=O)NNc3cc(C)c4c(C)nn(C)c4n3)o2)c(C)c1 [Example J3, 5-(Mesitylmethyl)-N′-(1,3,4-trimethyl-1H-pyrazolo[3,4-b]pyridin-6-yl)-2-furohydrazide]
5.85	Cc1c(C)c(C)c(Cc2ccc(C(=O)NNc3cc(C)c4c(C)nn(C)c4n3)o2)c(C)c1C [Example J5, 5-(2,3,4,5,6-Pentamethylbenzyl)-N′-(1,3,4-trimethyl-1H-pyrazolo[3,4-b]pyridin-6-yl)-2-furohydrazide]
4.79	COc1ccc(OC)c(Cc2ccc(C(=O)NNc3cc(C)c4c(C)nn(C)c4n3)o2)c1 [Example J6, 5-(2,5-Dimethoxy-benzyl)-furan-2-carboxylic acid N′-(1,3,4-trimethyl-1H-pyrazolo[3,4-b]pyridin-6-yl)-hydrazide]
5.41	COc1cc(Cc2ccc(C(=O)NNc3cc(C)c4c(C)nn(C)c4n3)o2)c(OC)c(OC)c1 [Example J8, 5-(2,3,5-trimethoxybenzyl)-N′-(1,3,4-trimethyl-1H-pyrazolo[3,4-b]pyridin-6-yl)-2-furohydrazide]
5.32	COc1ccc(OC)c(OC)c1Cc1ccc(C(=O)NNc2cc(C)c3c(C)nn(C)c3n2)o1 [Example J9, 5-(2,3,6-trimethoxybenzyl)-N′-(1,3,4-trimethyl-1H-pyrazolo[3,4-beta]pyridin-6-yl)-2-furohydrazide]
5.77	COc1cc(OC)c(Cc2ccc(C(=O)NNc3cc(C)c4c(C)nn(C)c4n3)o2)c(OC)c1 [Example J10, 5-(2,4,6-trimethoxybenzyl)-N-(1,3,4-trimethyl-1H-pyrazolo[3,4-b]pyridin-6-yl)-2-furohydrazide]
< 5.00	CCC(C)(C)c1ccc(OC)c(Cc2ccc(C(=O)NNc3cc(C)c4c(C)nn(C)c4n3)o2)c1 [Example J13, 5-[2-Methoxy-5-(tert-pentyl)benzyl]-N′-(1,3,4-trimethyl-1H-pyrazolo[3,4-b]pyridin-6-yl)-2-furohydrazide]
< 5.00	COc1cc(OC)c(OC)cc1Cc1ccc(C(=O)NNc2cc(C)c3c(C)nn(C)c3n2)o1 [Example J14, 5-(2,4,5-trimethoxybenzyl)-N-(1,3,4-trimethyl-1H-pyrazolo[3,4-b]pyridin-6-yl)-2-furohydrazide]
6.21	Cc1ccc(C)c(Cc2ccc(C(=O)NNc3cc(C)c4c(C)nn(C)c4n3)o2)c1 [Example J17]
5.85	CCN(CC)C(=O)C1(c2ccc(C)c(Cc3ccc(C(=O)NNc4cc(C)c5c(C)nn(C)c5n4)o3)c2)CC1 [Example J20, N,N-diethyl-1-{4-methyl-3-[(5-{[2-(1,3,4-trimethyl-1H-pyrazolo[3,4-b]pyridin-6-yl)hydrazino]carbonyl}-2-furyl)methyl]phenyl} cyclopropanecarboxamide]
≤ 5.00	Cc1cc(O)ccc1Cc1ccc(C(=O)NNc2cc(C)c3c(C)nn(C)c3n2)o1 [Example J21, 5-(4-Hydroxy-2-methylbenzyl)-N′-(1,3,4-trimethyl-1H-pyrazolo[3,4-b]pyridin-6-yl)-2-furohydrazide]
